Laboratory results published in patent publication US20240252508A1, “Novel glucose uptake inhibitors for use in the treatment of cancer” (NOVELYEAST BV, priority 2021, published 2024).

Experiments:
[1] = system: A549 lung adenocarcinoma cells; assay: A549 cell proliferation / growth inhibition; format: cell-based, human; details: for Selected from primary screen for growth inhibition of A549 cells at 50 μM: 50 μM compound, 1 mM glucose; for Selected for having an IC50 ratio (10 mM glucose: 1 mM glucose) of A549 growth higher than WBC-A: IC50 on 10 mM vs 1 mM glucose, compared with WBC-A
Experimental: The analog library (n=203) was screened for inhibition of growth of A549 cells on RPMI medium supplemented with 1 mM glucose. DMSO (green bar) and WBC-A (orange bar) served as negative and positive control, respectively. In addition, the reference glucose transport inhibitors STF-31, Fasentin, BAY-876, WZB-117 and Cytochalasin B were included and indicated in red. Compounds were added at 50 μM concentration. Number of cells was determined by counting nuclei stained by Hoechst after three days of growth.
For both adherent A549 and MCF10Δ H-RAS^V12 cell lines, growth curves were established using the IncuCyte® ZOOM technology. By collecting phase contrast images, the IncuCyte® software provides a calculated confluency percentage from which growth curves can be deducted.
Cells were seeded at a density of 1000-1500 cells/well in a Nunc-Edge™ 96-well plate (Thermo Fisher Scientific) and growth was typically measured over 3 to 5 days. For the measurement of apoptosis induction using the MCF10Δ H-RAS^V12 cell line, the IncuCyte® Caspase-3/7 green dye was added to the medium in the recommended concentration at the beginning of the growth curve experiment. Apoptosis was detected by taking fluorescent images by excitation at 488 nm followed by IncuCyte® software analysis. Cell growth of the KMS-12-PE multiple myeloma cell line, which grows in suspension, was measured by manual cell counting. Cells were initially seeded at a density of 10^4 cells/well and incubated for 4 days after which the cell number was counted. For all cell lines, the same medium used for pregrowth was also used for the growth curve experiment, albeit with different glucose concentrations depending on the experimental design. With compound administration, the final concentration of DMSO never exceeded 0.1%. Typically, at least four technical repeats were included per condition.

tps1Δ cells = assay: Growth rescue of tps1Δ strain on glucose (growth curves, 2% galactose medium); format: cell-based, S. cerevisiae; details: 100 μM compound, 2.5 mM glucose
Experimental: Growth curves were made by measuring OD595 in a 96-well plate using the Multiskan™ FC Microplate Photometer (Thermo Fisher Scientific). Typically, for tps1Δ rescue experiments (FIG. 2b-e; FIG. 4a), cells were (pre)grown in Complete Synthetic medium containing 2% galactose.
Compounds were always added 10 min prior to glucose addition to ensure maximal interaction between the cells and compounds. Cells originating from the preculture were harvested, washed in medium without sugar, after which they were resuspended to an OD of 0.1 in 200 μL of the appropriate medium. At least three technical replicates were included per condition. OD595 was measured at 30° C. every 30 min with a 10-min shaking interval.

Cc1nc(SC(C)C(=O)NC(C)C)c2c(-c3cccs3)csc2n1 (stereo not shown) [33B]
Selected from primary screen for growth inhibition of A549 cells at 50 μM [1]: Yes
Selected for having an IC50 ratio (10 mM glucose: 1 mM glucose) of A549 growth higher than WBC-A [1]: Lower IC50 ratio
Rescue of the tps1Δ strain on 2.5 mM glucose at 100 μM (tps1Δ cells): No

CCN(CC)CCSc1nc(C)nc2sc3c(c12)CCC3 [33C]
Selected from primary screen for growth inhibition of A549 cells at 50 μM [1]: Yes
Selected for having an IC50 ratio (10 mM glucose: 1 mM glucose) of A549 growth higher than WBC-A [1]: Lower IC50 ratio
Rescue of the tps1Δ strain on 2.5 mM glucose at 100 μM (tps1Δ cells): No

CN(Cc1nnc2n1CCCCC2)c1ncnc2sc(-c3ccccc3)cc12 [34A]
Selected from primary screen for growth inhibition of A549 cells at 50 μM [1]: No
Rescue of the tps1Δ strain on 2.5 mM glucose at 100 μM (tps1Δ cells): No

Cc1nc(SC(C(=O)NC(N)=O)C(C)C)c2c(-c3cccs3)csc2n1 (stereo not shown) [34B]
Selected from primary screen for growth inhibition of A549 cells at 50 μM [1]: No
Rescue of the tps1Δ strain on 2.5 mM glucose at 100 μM (tps1Δ cells): No

CCCn1c(Sc2nc(C)nc3scc(-c4cccs4)c23)nnc1-c1ccncc1 [34C]
Selected from primary screen for growth inhibition of A549 cells at 50 μM [1]: Yes
Selected for having an IC50 ratio (10 mM glucose: 1 mM glucose) of A549 growth higher than WBC-A [1]: Lower IC50 ratio
Rescue of the tps1Δ strain on 2.5 mM glucose at 100 μM (tps1Δ cells): No

Nc1nc(CSc2nnc3n2CCCCC3)nc2sc3c(c12)CCCCC3 [35A]
Selected from primary screen for growth inhibition of A549 cells at 50 μM [1]: Yes
Selected for having an IC50 ratio (10 mM glucose: 1 mM glucose) of A549 growth higher than WBC-A [1]: Lower IC50 ratio
Rescue of the tps1Δ strain on 2.5 mM glucose at 100 μM (tps1Δ cells): No

CCOC(=O)CSc1nc(CN2CCOCC2)nc2scc(-c3cccs3)c12 [35B]
Selected from primary screen for growth inhibition of A549 cells at 50 μM [1]: No
Rescue of the tps1Δ strain on 2.5 mM glucose at 100 μM (tps1Δ cells): No

Cc1nc(Sc2nnnn2Cc2ccco2)c2c(-c3cccs3)csc2n1 [35C]
Selected from primary screen for growth inhibition of A549 cells at 50 μM [1]: Yes
Selected for having an IC50 ratio (10 mM glucose: 1 mM glucose) of A549 growth higher than WBC-A [1]: Lower IC50 ratio
Rescue of the tps1Δ strain on 2.5 mM glucose at 100 μM (tps1Δ cells): No

Cc1sc2nc(-c3cccs3)nc(N(C)Cc3nnc4n3CCCCC4)c2c1C [36A]
Selected from primary screen for growth inhibition of A549 cells at 50 μM [1]: No
Rescue of the tps1Δ strain on 2.5 mM glucose at 100 μM (tps1Δ cells): No

COC(=O)C(C)Sc1nc(C)nc2scc(-c3cccs3)c12 (stereo not shown) [36B]
Selected from primary screen for growth inhibition of A549 cells at 50 μM [1]: No
Rescue of the tps1Δ strain on 2.5 mM glucose at 100 μM (tps1Δ cells): No

CCN(CC)CCSc1ncnc2scc(-c3ccccc3)c12 [36C]
Selected from primary screen for growth inhibition of A549 cells at 50 μM [1]: Yes
Selected for having an IC50 ratio (10 mM glucose: 1 mM glucose) of A549 growth higher than WBC-A [1]: Lower IC50 ratio
Rescue of the tps1Δ strain on 2.5 mM glucose at 100 μM (tps1Δ cells): No

CCn1c(CN)nnc1Sc1nc(-c2ccccc2)nc2scc(-c3ccccc3)c12 [37A]
Selected from primary screen for growth inhibition of A549 cells at 50 μM [1]: No
Rescue of the tps1Δ strain on 2.5 mM glucose at 100 μM (tps1Δ cells): No

COC(=O)CSc1nc(CN2CCOCC2)nc2scc(-c3cccs3)c12 [37B]
Selected from primary screen for growth inhibition of A549 cells at 50 μM [1]: No
Rescue of the tps1Δ strain on 2.5 mM glucose at 100 μM (tps1Δ cells): No

CC1CN(C(=O)CSc2ncnc3scc(-c4ccc(F)cc4)c23)CCO1 (stereo not shown) [37C]
Selected from primary screen for growth inhibition of A549 cells at 50 μM [1]: No
Rescue of the tps1Δ strain on 2.5 mM glucose at 100 μM (tps1Δ cells): No

Cc1nc(N2CCCC(c3nncn3C)C2)c2c(-c3cccs3)csc2n1 (stereo not shown) [38A]
Selected from primary screen for growth inhibition of A549 cells at 50 μM [1]: No
Rescue of the tps1Δ strain on 2.5 mM glucose at 100 μM (tps1Δ cells): No

Cc1nc(SCC(=O)c2ccc(NC(=O)CC(C)C)cc2)c2c(-c3cccs3)csc2n1 [38B]
Selected from primary screen for growth inhibition of A549 cells at 50 μM [1]: No
Rescue of the tps1Δ strain on 2.5 mM glucose at 100 μM (tps1Δ cells): No

CCn1c(Sc2nc(C)nc3scc(-c4cccs4)c23)nnc1-c1ccco1 [38C]
Selected from primary screen for growth inhibition of A549 cells at 50 μM [1]: No
Rescue of the tps1Δ strain on 2.5 mM glucose at 100 μM (tps1Δ cells): No

Cc1nc(Sc2nnnn2C)c2c(-c3cccs3)csc2n1 [39A]
Selected from primary screen for growth inhibition of A549 cells at 50 μM [1]: Yes
Selected for having an IC50 ratio (10 mM glucose: 1 mM glucose) of A549 growth higher than WBC-A [1]: Lower IC50 ratio
Rescue of the tps1Δ strain on 2.5 mM glucose at 100 μM (tps1Δ cells): No

Cc1nc(N(C)CC(N)=O)c2c(-c3cccs3)csc2n1 [39B]
Selected from primary screen for growth inhibition of A549 cells at 50 μM [1]: No
Rescue of the tps1Δ strain on 2.5 mM glucose at 100 μM (tps1Δ cells): No

CC(=O)N(c1nnc(Sc2nc(C)nc3scc(-c4cccs4)c23)s1)C1CC1 [39C]
Selected from primary screen for growth inhibition of A549 cells at 50 μM [1]: No
Rescue of the tps1Δ strain on 2.5 mM glucose at 100 μM (tps1Δ cells): No

COCc1nc(Sc2nnc(CN)n2C)c2c(-c3ccccc3)csc2n1 [40A]
Selected from primary screen for growth inhibition of A549 cells at 50 μM [1]: No
Rescue of the tps1Δ strain on 2.5 mM glucose at 100 μM (tps1Δ cells): No

Cc1nc(SCC(=O)NC(=O)NCc2ccco2)c2cc(-c3ccccc3)sc2n1 [40B]
Selected from primary screen for growth inhibition of A549 cells at 50 μM [1]: Yes
Selected for having an IC50 ratio (10 mM glucose: 1 mM glucose) of A549 growth higher than WBC-A [1]: Lower IC50 ratio
Rescue of the tps1Δ strain on 2.5 mM glucose at 100 μM (tps1Δ cells): No
